Experimental data taken from the NIST ThermoML archive (doi:10.1016/j.jct.2015.05.006).
Numbers after ± are expanded uncertainties.

Key:
[1] = 101.33 kPa, Liquid, Vibrating tube method
[2] = relative permittivity at various frequencies (dimensionless); details: Liquid, Frequency=1 MHz, Parallel plate capacitor
[3] = xn = mol fraction of the nth substance listed; details: Liquid, Vibrating tube method, x1 = 1
[4] = relative permittivity at various frequencies (dimensionless); xn = mol fraction of the nth substance listed; details: Liquid, Frequency=1 MHz, Parallel plate capacitor, x1 = 1

COCCOC [1,2-dimethoxyethane]
[1]
Details | mass density [kg/m3]
288.15 K | 872.06 ± 1
298.15 K | 861.17 ± 1
308.15 K | 850.13 ± 1

[2], 96.5 kPa
Details | relative permittivity
288.15 K | 7.41 ± 0.07
298.15 K | 7.07 ± 0.07
308.15 K | 6.75 ± 0.07

CCCCCC [hexane]
[1]
Details | mass density [kg/m3]
288.15 K | 664.13 ± 1
298.15 K | 655.14 ± 1
308.15 K | 646.1 ± 1

[2], 95.2 kPa
Details | relative permittivity
288.15 K | 1.91 ± 0.02
298.15 K | 1.89 ± 0.02
308.15 K | 1.88 ± 0.02

CCCCCCCCCCCC [dodecane]
[1]
Details | mass density [kg/m3]
288.15 K | 752.44 ± 1
298.15 K | 745.29 ± 1
308.15 K | 737.93 ± 1

[2], 97 kPa
Details | relative permittivity
288.15 K | 2.04 ± 0.02
298.15 K | 2.02 ± 0.02
308.15 K | 2.01 ± 0.02

CCCCCC [hexane] + COCCOC
95.2 kPa
Details | mass density, 288.15 K [kg/m3] | mass density, 298.15 K [kg/m3] | mass density, 308.15 K [kg/m3] | relative permittivity, 288.15 K | relative permittivity, 298.15 K | relative permittivity, 308.15 K
[3] | 664.13 ± 1 | 655.14 ± 1 | 646.1 ± 1 | – | – | –
[4] | – | – | – | 1.91 ± 0.02 | 1.89 ± 0.02 | 1.88 ± 0.02

C1CCCCC1 [cyclohexane] + COCCOC
96.6 kPa
Details | mass density, 288.15 K [kg/m3] | mass density, 298.15 K [kg/m3] | mass density, 308.15 K [kg/m3] | relative permittivity, 288.15 K | relative permittivity, 298.15 K | relative permittivity, 308.15 K
[3] | 783.29 ± 1 | 773.86 ± 1 | 764.38 ± 1 | – | – | –
[4] | – | – | – | 2.04 ± 0.02 | 2.03 ± 0.02 | 2.02 ± 0.02

CCCCCCCCCCCC [dodecane] + COCCOC
97 kPa
Details | mass density, 288.15 K [kg/m3] | mass density, 298.15 K [kg/m3] | mass density, 308.15 K [kg/m3] | relative permittivity, 288.15 K | relative permittivity, 298.15 K | relative permittivity, 308.15 K
[3] | 752.44 ± 1 | 745.29 ± 1 | 737.93 ± 1 | – | – | –
[4] | – | – | – | 2.04 ± 0.02 | 2.02 ± 0.02 | 2.01 ± 0.02

C1CCCCC1 [cyclohexane]
[1]
Details | mass density [kg/m3]
288.15 K | 783.29 ± 1
298.15 K | 773.86 ± 1
308.15 K | 764.38 ± 1

[2], 96.6 kPa
Details | relative permittivity
288.15 K | 2.04 ± 0.02
298.15 K | 2.03 ± 0.02
308.15 K | 2.02 ± 0.02

CCCCCCCC [octane]
[1]
Details | mass density [kg/m3]
288.15 K | 706.6 ± 1
298.15 K | 698.58 ± 1
308.15 K | 690.48 ± 1

[2], 97.1 kPa
Details | relative permittivity
288.15 K | 1.97 ± 0.02
298.15 K | 1.96 ± 0.02
308.15 K | 1.94 ± 0.02

CCCCCCCC [octane] + COCCOC
97.1 kPa
Details | mass density, 288.15 K [kg/m3] | mass density, 298.15 K [kg/m3] | mass density, 308.15 K [kg/m3] | relative permittivity, 288.15 K | relative permittivity, 298.15 K | relative permittivity, 308.15 K
[3] | 706.6 ± 1 | 698.58 ± 1 | 690.48 ± 1 | – | – | –
[4] | – | – | – | 1.97 ± 0.02 | 1.96 ± 0.02 | 1.94 ± 0.02
